Data: patent US11512279B2, “Technology to generate and utilize customized microorganism-growth assay keys” (priority 2018, dated 2022)

Assays:
[1] = system: C. auris; assay: Differentiation of C. auris from other Candida species with other QACs in growth media; type: cell-based; conditions: QAC added to growth medium
[2] = system: C. auris; assay: Plate assay on Sabouraud dextrose medium with tBHP (FIGS. 13A-13B); type: cell-based, Candida auris; conditions: 30° C.
Experimental: FIGS. 13A-13B illustrate C. auris's relative sensitivity to tBHP. FIG. 13A depicts a plate with a tBHP-containing culture medium that includes seven different yeasts (Candida albicans, Candida glabrata, Candida krusei, Candida auris, Candida haemulonii, Candida famata, and Saccharomyces cerevisiae) at five different calculated cell counts (62, 625, 6,250, […], with the uncertainty inherent in the calculation). The yeast-containing plate was incubated at 30° C. The plating scheme is illustrated in FIG. 1. The culture medium comprised a Sabouraud dextrose medium with tBHP (added after autoclaving the other media ingredients from a 70% solution in water). Whereas a resuspension of cells picked from a colony will always enhance the sensitivity of this (and related) assays, it is possible to streak cells without any dilution directly from a colony if the plate is evaluated early (after approximately 24 hours, some regrowth will occur later), as depicted in FIG. 13B. […]

[3] = system: Candida auris; assay: BAC media panel growth key (Table A, FIG. 19); type: cell-based; conditions: BAC low 1.5 mg/l or high 10 mg/l; pH 3.3 or 7.5; peptone, potato dextrose or YNB with amino acids; 23° C. or 37° C.
Excerpt: (§1) As an example, a group of 36 yeast strains with Candida-like morphology representing 29 different species was used to define single species or subgroups of species depending on their QAC sensitivity at different temperatures, pH values and in the presence of different supplements (e.g. peptone, potato dextrose, and YNB with amino acids).
(§2) Preliminary tests were designed with several representative yeast strains with a range of benzalkonium chloride (“BAC”) concentrations, a mix of supplements, neutral pH, and intermediate temperature (30° C.). The observed growth characteristics made it likely that two BAC concentrations (“low”=1.5 mg/l and “high”=10 mg/l) could be used in conjunction with the three different growth supplements (used separately). Low and high pH and temperature values were defined to elicit species-specific growth responses: two different pH conditions (pH 3.3 and pH 7.5, adjusted with concentrations of HCl or 100 mg/ml NaOH) and incubation temperatures (23° C. and 37° C.). Commonly used concentrations for peptone (20 g/l), potato dextrose (24 g/l), and yeast nitrogen base with amino acids (6.7 g/l) were applied. […] For example: “pH7.5/low BAC/Pep-23° C.” refers to a plate with pH 7.5, […] BAC (low BAC) containing peptone as a growth supplement and incubated at 23° C.
(§3) All 36 strains were streaked and precultured for 48 h on Sabauroud-dextrose medium at 30° C. before cell samples were suspended in water (as described before). 10-15 μl drops of these suspensions were applied to the different media and plates were incubated in parallel at 37° C. and 23° C. These drops were classified as growing (+) or non-growing (−) after 3 days or 5 days of incubation, respectively.

[4] = system: Candida valida; assay: BAC media panel growth key (Table A, FIG. 19); type: cell-based; conditions: BAC low 1.5 mg/l or high 10 mg/l; pH 3.3 or 7.5; peptone, potato dextrose or YNB with amino acids; 23° C. or 37° C.
Excerpt: as §1, §2, §3

[5] = system: Candida guilliermondii; assay: BAC media panel growth key (Table A, FIG. 19); type: cell-based; conditions: BAC low 1.5 mg/l or high 10 mg/l; pH 3.3 or 7.5; peptone, potato dextrose or YNB with amino acids; 23° C. or 37° C.
Excerpt: as §1, §2, §3

[6] = system: Candida rugosa; assay: BAC media panel growth key (Table A, FIG. 19); type: cell-based; conditions: BAC low 1.5 mg/l or high 10 mg/l; pH 3.3 or 7.5; peptone, potato dextrose or YNB with amino acids; 23° C. or 37° C.
Excerpt: as §1, §2, §3

Compound: CC(C)(C)CC(C)(C)c1ccc(OCCOCC[N+](C)(C)Cc2ccccc2)cc1 [benzethonium chloride]
- use to differentiate C. auris from other Candida species [1]: successfully used

Compound: CC(C)(C)OO [tert-butyl-hydroperoxide]
- sensitivity to tBHP relative to other yeasts [2]: relatively high sensitivity

Compound: CCCCCCCCCCCCCC[N+](C)(C)C.[Br-] [tetradecyltrimethylammonium bromide]
- use to differentiate C. auris from other Candida species [1]: successfully used

Compound: benzalkonium chloride
- use to differentiate C. auris from other Candida species [1]: successfully used
- growth pattern over 24 BAC / supplement / pH / temperature conditions [3]: resistance to BAC under virtually all conditions
- growth pattern over 24 BAC / supplement / pH / temperature conditions [4]: BAC sensitivity under all conditions
- growth pattern over 24 BAC / supplement / pH / temperature conditions [5]: growth is observed under all conditions at 23 °C but not 37 °C
- growth pattern over 24 BAC / supplement / pH / temperature conditions [6]: growth at the high concentration appears to be restricted to the low pH
